This note sets out measurements from patent US20260217735A1, “HETEROCYCLES AND USES THEREOF” (Kumquat Biosciences Inc., priority 2023, published 2026).

Test [1] concerns MiaPaca2 cells. The test can be described thus: Ras cellular assay, growth of cells with K-Ras G12C mutation. It counts as cell-based. Conditions: Homo sapiens, MIA PaCa-2; cell proliferation assay; bins ≤500 nM / >500 nM; read-out: Inhibition of MiaPaca2 Cells (IC50). As to the method:
For example, this assay can be also used to assess selective growth inhibition of a mutant Ras protein relative to a wildtype or different mutant Ras protein.
MIA PaCa-2 (ATCC CRL-1420) and NCI-H1792 (ATCC CRL-5895) cell lines comprise a G12C mutation and can be used to assess Ras cellular signaling in vitro, e.g., in response to an inhibitor compound of the present disclosure. […] MIA PaCa-2 culture medium is prepared with DMEM/Ham's F12 (e.g., with stable glutamine, 10% FCS, and 2.5% horse serum. NCI-H1792 culture medium is prepared with RPMI 1640 (e.g., with stable glutamine) and 10% FCS.
On a first day (e.g., Day 1), Softagar (Select Agar, Invitrogen, 3% in ddH2O autoclaved) is boiled and tempered at 48° C. Appropriate culture medium (i.e., medium) is tempered to 37° C. Agar (3%) is diluted 1:5 in medium (=0.6%) and plated into 96 well plates (Corning, #3904), then incubated at room temperature for agar solidification. A 3% agar is diluted to 0.25% in medium (1:12 dilution) and tempered at 42° C. Cells are trypsinized, counted, and tempered at 37° C. The cells (e.g., MIA PaCa-2 at about 125-150 cells, NCI-H1792 at about 1000 cells) are resuspended in […] 0.25% Agar and plated, followed by incubation at room temperature for agar solidification. The wells are overlaid with […] of the medium. Sister wells in a separate plate are plated for time zero determination. All plates are incubated overnight at 37° C. and 5% CO2.
On a second day (e.g., Day 2), time zero values are measured. A […] volume of Cell Titer 96 Aqueous Solution (Promega) is added to each well and incubated in the dark at 37° C. and 5% CO2. Absorption can be measured at 490 nm and reference wavelength 660 nm. DMSO-prediluted test compounds are added to wells of interest, e.g., with HP Dispenser, to one or more desired concentrations (e.g., a final DMSO concentration of 0.3%).
On a tenth day (e.g., Day 10), absorption by wells treated with the test compounds and control wells are measured with, for example, Cell Titer 96 AQueous and analyzed in comparison to the time zero measurements. The IC50 values are determined using the four parameter fit. The resulting IC50 value is a measurement of the ability of the test compound to reduce cell growth of Ras-driven cells (e.g., tumor cell lines) in vitro and/or in vivo.

The target in test [2] is T1, KRAS G12V (Homo sapiens, UniProt P01116, G12V).
T1 construct: made in house; host or cells: E. coli, e.g. BL21 (DE3)
Put plainly: HTRF assay, KRAS G12V interaction with SOS1. Type of test: biochemical. The settings on record: bins <500 nM / 500 nM to 1000 nM, read-out: Inhibition of KRAS G12V (IC50). The source says: (§1) This assay can be also used to assess a selective inhibition or reduction of signaling output of a mutant Ras protein relative to a wildtype, or relative to a different mutant Ras protein. For example, the equilibrium interaction of wildtype KRAS or K-Ras mutant (e.g., wildtype or a mutant thereof) with SOS1 (e.g., hSOS1) can be assessed as a proxy or an indication for the ability of a subject compound to bind and inhibit Ras protein. The HTRF assay detects from (i) a fluorescence resonance energy transfer (FRET) donor (e.g., antiGST-Europium) that is bound to GST-tagged K-Ras mutant to (ii) a FRET acceptor (e.g., anti-6His-XL665) bound to a His-tagged hSOSL1.
(§2) The assay buffer can contain ~5 mM HEPES pH 7.4, ~150 mM NaCl, ~1 mM DTT, 0.05% BSA and 0.0025% (v/v) Igepal. A Ras working solution is prepared in an assay buffer containing typically a suitable amount of the protein construct (e.g., GST-tagged K-Ras mutant) and the FRET donor (e.g., antiGST-Eu(K) from Cisbio, France). A SOS1 working solution is prepared in an assay buffer containing suitable amount of the protein construct (e.g., His-hSOS1) and the FRET acceptor (e.g., anti-6His-XL665 from Cisbio, France). A suitable amount of the protein construct will depend on the range of activity or range of IC50 values being detected or under investigation. For detecting an IC50 within a range of 500 nM, the protein constructs of the same range of molarity can be utilized.
(§3) A fixed volume of DMSO with or without test compound is transferred into a 384-well plate. Ras working solution is added to all wells of the test plate. SOS1 working solution is added to all wells except for those that are subsequently filled with inhibitor control solution. Upon incubation for about 10 minutes or longer, the fluorescence is measured with a M1000Pro plate reader (Tecan) using HTRF detection (excitation 337 nm, emission 1: 620 nm, emission 2: 665 nm). Compounds are tested in duplicate at different concentrations (for example, 10 μM, 2.5 μM, 0.63 μM, 0.16 μM, 0.04 μM, 0.01 μM test compound). The ratiometric data (i.e., emission 2 divided by emission 1) is used to calculate IC50 values against Ras using GraphPad Prism (GraphPad software). Signaling output measured in terms of IC50 values can be obtained and a ratio of IC50 against one mutant relative to another mutant can be calculated. For instance, a selective reduction of K-Ras G12S signaling output can be evidenced by a ratio greater than one. In particular, a selective reduction of K-Ras G12S signaling relative to K-Ras WT signaling is evidenced if the ratio of IC50 (against K-Ras WT) to IC50 (against K-Ras G12S) is greater than 1.
(In general: TR-FRET usually uses a lanthanide donor and a delayed reading to cut background.)

Test [3] concerns the target T2, KRAS G12S (Homo sapiens, UniProt P01116, G12S).
T2 construct: made in house; host or cells: E. coli, e.g. BL21 (DE3)
The test can be described thus: HTRF assay, KRAS G12S interaction with SOS1. Conditions: bins <500 nM / 500 nM to 1000 nM, read-out: Inhibition of KRAS G12S (IC50). It counts as biochemical.
Text: as §1, §2, §3

The target in test [4] is T3, KRAS G12D (Homo sapiens, UniProt P01116, G12D).
T3 construct: made in house; host or cells: E. coli, e.g. BL21 (DE3)
The test can be described thus: HTRF assay, KRAS G12D interaction with SOS1. It counts as biochemical. Conditions: bins <500 nM / 500 nM to 1000 nM, read-out: Inhibition of KRAS G12D (IC50).
Text: as §1, §2, §3

For test [5], the target named is T4, KRAS WT (Homo sapiens, UniProt P01116).
T4 construct: made in house; host or cells: E. coli, e.g. BL21 (DE3)
The test can be described thus: HTRF assay, wildtype KRAS interaction with SOS1. Type of test: biochemical. The settings on record: bins <500 nM / 500 nM to 1000 nM, read-out: Inhibition of KRAS WT (IC50).
Text: as §1, §2, §3

T4 sequence (P01116 1-188 isoform P01116-2): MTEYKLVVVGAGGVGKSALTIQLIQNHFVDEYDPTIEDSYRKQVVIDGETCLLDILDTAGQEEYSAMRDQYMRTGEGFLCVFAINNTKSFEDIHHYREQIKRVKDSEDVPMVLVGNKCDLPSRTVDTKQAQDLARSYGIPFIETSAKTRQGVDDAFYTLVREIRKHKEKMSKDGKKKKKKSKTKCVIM
T1 sequence (P01116 1-188 isoform P01116-2 G12V): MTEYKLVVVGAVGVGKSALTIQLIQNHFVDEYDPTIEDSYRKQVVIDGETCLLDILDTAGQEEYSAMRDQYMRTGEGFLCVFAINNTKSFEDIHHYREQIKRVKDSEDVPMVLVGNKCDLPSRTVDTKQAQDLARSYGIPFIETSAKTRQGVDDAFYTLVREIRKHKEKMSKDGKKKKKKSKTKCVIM
T3 sequence (P01116 1-188 isoform P01116-2 G12D): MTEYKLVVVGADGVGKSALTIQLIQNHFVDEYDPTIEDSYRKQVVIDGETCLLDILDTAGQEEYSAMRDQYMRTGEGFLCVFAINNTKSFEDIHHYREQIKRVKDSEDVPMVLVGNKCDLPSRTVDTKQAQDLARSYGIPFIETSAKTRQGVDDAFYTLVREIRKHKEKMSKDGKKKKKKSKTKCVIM
T2 sequence (P01116 1-188 isoform P01116-2 G12S): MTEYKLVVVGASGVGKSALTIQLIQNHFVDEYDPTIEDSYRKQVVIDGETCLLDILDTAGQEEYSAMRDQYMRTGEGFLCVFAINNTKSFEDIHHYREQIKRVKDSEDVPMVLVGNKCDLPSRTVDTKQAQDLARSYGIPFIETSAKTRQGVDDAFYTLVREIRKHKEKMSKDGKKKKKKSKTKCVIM

With `Cc1cn(C(=O)N2CC[C@@]23CCN(c2nc(OC[C@@]45CCCN4C[C@H](F)C5)nc4c(F)c(-c5ccc(F)c6sc(N)c(C#N)c56)c(Cl)cc24)C3)cn1` (atropisomer, axis not shown; (aS)) [Compound 107, (R)-2-amino-4-(6-chloro-8-fluoro-2-(((2R,7aS)-2-fluorotetrahydro-1H-pyrrolizin-7a(5H)-yl)methoxy)-4-((R)-1-(4-methyl-1H-imidazole-1-carbonyl)-1,6-diazaspiro[3.4]octan-6-yl)quinazolin-7-yl)-7-fluorobenzo[b]thiophene-3-carbonitrile], the 50% inhibitory concentration (IC50) in test [1] is at most 500 nM; in test [2], below 500 nM; in test [3], below 500 nM; in test [4] it was below 500 nM; in test [5], below 500 nM.

Turning to `CCN(c1nc(OC[C@@]23CCCN2C[C@H](F)C3)nc2c(F)c(-c3ccc(F)c4sc(N)c(C#N)c34)c(C(F)(F)F)cc12)[C@@H]1CCN(C(=O)n2cc(C)nc2C)[C@@H]1C` (atropisomer, axis not shown; (aS)) [Compound 114, (S)-2-amino-4-(4-(((2R,3R)-1-(2,4-dimethyl-1H-imidazole-1-carbonyl)-2-methylpyrrolidin-3-yl)(ethyl)amino)-8-fluoro-2-(((2R,7aS)-2-fluorotetrahydro-1H-pyrrolizin-7a(5H)-yl)methoxy)-6-(trifluoromethyl)quinazolin-7-yl)-7-fluorobenzo[b]thiophene-3-carbonitrile], the concentration for half-maximal inhibition (IC50) is at most 500 nM in test [1]; below 500 nM in test [2]; below 500 nM in test [3]; below 500 nM in test [4]; below 500 nM in test [5].

With `CC[C@H]1N(C(=O)n2cc(C#N)nc2C)C[C@]12CCCCN(c1nc(OC[C@@]34CCCN3C[C@H](F)C4)nc3c(F)c(-c4ccc(F)c5sc(N)c(C#N)c45)c(Cl)cc13)C2` (atropisomer, axis not shown; (aS)) [Compound 117, 1-((1R,4R)-6-(7-((R)-2-amino-3-cyano-7-fluorobenzo[b]thiophen-4-yl)-6-chloro-8-fluoro-2-(((2R,7aS)-2-fluorotetrahydro-1H-pyrrolizin-7a(5H)-yl)methoxy)quinazolin-4-yl)-1-ethyl-2,6-diazaspiro[3.6]decane-2-carbonyl)-2-methyl-1H-imidazole-4-carbonitrile], the 50% inhibitory concentration (IC50) in test [1] is at most 500 nM; in test [2], below 500 nM; in test [3] it was below 500 nM; in test [4], below 500 nM; in test [5], below 500 nM.

As for `CC1CC(N(C)c2nc(OC[C@@]34CCCN3C[C@H](F)C4)nc3c(F)c(-c4ccc(F)c5sc(N)c(C#N)c45)c(Cl)cc23)CN1C(=O)n1cnc(F)n1` (mixture of isomers) [Compound 150, 2-amino-4-(6-chloro-8-fluoro-4-((1-(3-fluoro-1H-1,2,4-triazole-1-carbonyl)-5-methylpyrrolidin-3-yl)(methyl)amino)-2-(((2R,7aS)-2-fluorotetrahydro-1H-pyrrolizin-7a(5H)-yl)methoxy)quinazolin-7-yl)-7-fluorobenzo[b]thiophene-3-carbonitrile], the IC50 in test [1] was at most 500 nM.

On to `CN(c1nc(OC[C@@]23CCCN2C[C@H](F)C3)nc2c(F)c(-c3ccc(F)c4sc(N)c(C#N)c34)c(Cl)cc12)C1CN(C(=O)n2ccnc2)CC1F` (single isomer, unassigned) [Compound 189], for which the IC50 in test [1] is at most 500 nM.

For the molecule `CCN(c1nc(OCC23CCCN2C(COc2cc(C(F)(F)F)ncn2)CC3)nc2c(F)c(-c3ccc(F)c4sc(N)c(C#N)c34)c(Cl)cc12)[C@@H]1CCN(C(=O)n2cc(C)nc2C)[C@@H]1C` (single isomer, unassigned) [Compound 217], the IC50 in test [1] was at most 500 nM.

For `Cc1cn(C(=O)N2C[C@]3(CCCCN(c4nc(OC[C@@]56CCCN5C[C@H](F)C6)nc5c(F)c(-c6ccc(F)c7sc(N)c(C#N)c67)c(Cl)cc45)C3)[C@H]2C2(C)CC2)cn1` [Compound 207, 2-amino-4-(6-chloro-8-fluoro-2-(((2R,7aS)-2-fluorotetrahydro-1H-pyrrolizin-7a(5H)-yl)methoxy)-4-((1R,4R)-2-(4-methyl-1H-imidazole-1-carbonyl)-1-(1-methylcyclopropyl)-2,6-diazaspiro[3.6]decan-6-yl)quinazolin-7-yl)-7-fluorobenzo[b]thiophene-3-carbonitrile], the IC50 in test [2], in test [3], in test [4] and in test [5] was below 500 nM throughout.

On to `CC1CC(N(C)c2nc(OC[C@@]34CCCN3C[C@H](F)C4)nc3c(F)c(-c4ccc(F)c5sc(N)c(C#N)c45)c(Cl)cc23)CCN1C(=O)n1ccnc1` (stereo partly drawn) [Compound 209, 4-(4-((1-(1H-imidazole-1-carbonyl)-2-methylpiperidin-4-yl)(methyl)amino)-6-chloro-8-fluoro-2-(((2R,7aS)-2-fluorotetrahydro-1H-pyrrolizin-7a(5H)-yl)methoxy)quinazolin-7-yl)-2-amino-7-fluorobenzo[b]thiophene-3-carbonitrile], for which the half-inhibitory concentration (IC50) in test [1] was at most 500 nM; in test [4], below 500 nM.

Turning to `C=C1CN2CC(=C)CC2(COc2nc(N(CC)[C@@H]3CCN(C(=O)n4cnc(Cl)n4)[C@@H]3C)c3cc(C(F)(F)F)c(-c4ccc(F)c5sc(N)c(C#N)c45)c(F)c3n2)C1` [Compound 219, 2-amino-4-(4-(((2R,3R)-1-(3-chloro-1H-1,2,4-triazole-1-carbonyl)-2-methylpyrrolidin-3-yl)(ethyl)amino)-2-((2,6-dimethylenetetrahydro-1H-pyrrolizin-7a(5H)-yl)methoxy)-8-fluoro-6-(trifluoromethyl)quinazolin-7-yl)-7-fluorobenzo[b]thiophene-3-carbonitrile], the IC50 in test [2], in test [3], in test [4] and in test [5] was below 500 nM in each case.

As usually defined, the IC50 is the concentration that gives 50% inhibition.
